From PubChem BioAssay (NCI)
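Assay format: 96-well plates, 48-hour exposure. TGI marks complete inhibition of growth.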

What was measured:
Assay in all cases: growth of human tumour cells (NCI), 48 h
786-0 renal = tested on: 786-0 renal
A549 NSCLC = tested on: A549 NSCLC
ACHN renal = tested on: ACHN renal
CAKI-1 renal = tested on: CAKI-1 renal
CCRF-CEM leukemia = tested on: CCRF-CEM leukemia
COLO 205 colon = tested on: COLO 205 colon
DLD-1 colon = tested on: DLD-1 colon
DMS 114 small cell lung = tested on: DMS 114 small cell lung
DMS 273 small cell lung = tested on: DMS 273 small cell lung
EKVX NSCLC = tested on: EKVX NSCLC
HCC-2998 colon = tested on: HCC-2998 colon
HCT-116 colon = tested on: HCT-116 colon
HCT-15 colon = tested on: HCT-15 colon
HL-60(TB) leukemia = tested on: HL-60(TB) leukemia
HOP-62 NSCLC = tested on: HOP-62 NSCLC
HOP-92 NSCLC = tested on: HOP-92 NSCLC
HT29 colon = tested on: HT29 colon
IGROV1 ovarian = tested on: IGROV1 ovarian
K-562 leukemia = tested on: K-562 leukemia
KM12 colon = tested on: KM12 colon
KM20L2 colon = tested on: KM20L2 colon
LOX IMVI melanoma = tested on: LOX IMVI melanoma
LXFL 529 NSCLC = tested on: LXFL 529 NSCLC
MALME-3M melanoma = tested on: MALME-3M melanoma
MOLT-4 leukemia = tested on: MOLT-4 leukemia
NCI-H226 lung = tested on: NCI-H226 lung
NCI-H23 lung = tested on: NCI-H23 lung
NCI-H460 lung = tested on: NCI-H460 lung
NCI-H522 lung = tested on: NCI-H522 lung
OVCAR-3 ovarian = tested on: OVCAR-3 ovarian
OVCAR-8 ovarian = tested on: OVCAR-8 ovarian
RPMI-8226 leukemia = tested on: RPMI-8226 leukemia
RXF 393 renal = tested on: RXF 393 renal
RXF-631 renal = tested on: RXF-631 renal
SF-268 CNS = tested on: SF-268 CNS
SF-295 CNS = tested on: SF-295 CNS
SF-539 CNS = tested on: SF-539 CNS
SK-MEL-2 melanoma = tested on: SK-MEL-2 melanoma
SK-MEL-28 melanoma = tested on: SK-MEL-28 melanoma
SK-MEL-5 melanoma = tested on: SK-MEL-5 melanoma
SK-OV-3 ovarian = tested on: SK-OV-3 ovarian
SN12C renal = tested on: SN12C renal
SNB-19 CNS = tested on: SNB-19 CNS
SR leukemia = tested on: SR leukemia
SW-620 colon = tested on: SW-620 colon
TK-10 renal = tested on: TK-10 renal
U251 CNS = tested on: U251 CNS
UACC-257 melanoma = tested on: UACC-257 melanoma
UACC-62 melanoma = tested on: UACC-62 melanoma
A498 renal = tested on: A498 renal
HOP-18 NSCLC = tested on: HOP-18 NSCLC
M14 melanoma = tested on: M14 melanoma
M19-MEL melanoma = tested on: M19-MEL melanoma
OVCAR-4 ovarian = tested on: OVCAR-4 ovarian
OVCAR-5 ovarian = tested on: OVCAR-5 ovarian
SNB-75 CNS = tested on: SNB-75 CNS
SNB-78 CNS = tested on: SNB-78 CNS
UO-31 renal = tested on: UO-31 renal
XF 498 CNS = tested on: XF 498 CNS

Cn1c2c(c3ccccc31)C1C(=O)N(c3ccccc3)C(=O)C1CC2 (configuration not stated)
TGI (786-0 renal): > 303 µM | TGI (A549 NSCLC): > 303 µM | TGI (ACHN renal): > 303 µM | TGI (CAKI-1 renal): > 303 µM | TGI (CCRF-CEM leukemia): > 303 µM | TGI (COLO 205 colon): > 303 µM | TGI (DLD-1 colon): > 303 µM | TGI (DMS 114 small cell lung): > 303 µM | TGI (DMS 273 small cell lung): > 303 µM | TGI (EKVX NSCLC): > 303 µM | TGI (HCC-2998 colon): > 303 µM | TGI (HCT-116 colon): > 303 µM | TGI (HCT-15 colon): > 303 µM | TGI (HL-60(TB) leukemia): > 303 µM | TGI (HOP-62 NSCLC): > 303 µM | TGI (HOP-92 NSCLC): > 303 µM | TGI (HT29 colon): > 303 µM | TGI (IGROV1 ovarian): > 303 µM | TGI (K-562 leukemia): > 303 µM | TGI (KM12 colon): > 303 µM | TGI (KM20L2 colon): > 303 µM | TGI (LOX IMVI melanoma): > 303 µM | TGI (LXFL 529 NSCLC): > 303 µM | TGI (MALME-3M melanoma): > 303 µM | TGI (MOLT-4 leukemia): > 303 µM | TGI (NCI-H226 lung): > 303 µM | TGI (NCI-H23 lung): > 303 µM | TGI (NCI-H460 lung): > 303 µM | TGI (NCI-H522 lung): > 303 µM | TGI (OVCAR-3 ovarian): > 303 µM | TGI (OVCAR-8 ovarian): > 303 µM | TGI (RPMI-8226 leukemia): > 303 µM | TGI (RXF 393 renal): > 303 µM | TGI (RXF-631 renal): > 303 µM | TGI (SF-268 CNS): > 303 µM | TGI (SF-295 CNS): > 303 µM | TGI (SF-539 CNS): > 303 µM | TGI (SK-MEL-2 melanoma): > 303 µM | TGI (SK-MEL-28 melanoma): > 303 µM | TGI (SK-MEL-5 melanoma): > 303 µM | TGI (SK-OV-3 ovarian): > 303 µM | TGI (SN12C renal): > 303 µM | TGI (SNB-19 CNS): > 303 µM | TGI (SR leukemia): > 303 µM | TGI (SW-620 colon): > 303 µM | TGI (TK-10 renal): > 303 µM | TGI (U251 CNS): > 303 µM | TGI (UACC-257 melanoma): > 303 µM | TGI (UACC-62 melanoma): > 303 µM

C=C(Nc1ccc(OC)cc1OC)C(=O)Cc1cccc[n+]1[O-]
TGI (786-0 renal): > 100 µM | TGI (A498 renal): > 100 µM | TGI (A549 NSCLC): > 100 µM | TGI (ACHN renal): > 100 µM | TGI (CAKI-1 renal): > 100 µM | TGI (CCRF-CEM leukemia): > 100 µM | TGI (COLO 205 colon): > 100 µM | TGI (DLD-1 colon): > 100 µM | TGI (DMS 114 small cell lung): > 100 µM | TGI (DMS 273 small cell lung): > 100 µM | TGI (EKVX NSCLC): > 100 µM | TGI (HCC-2998 colon): > 100 µM | TGI (HCT-116 colon): > 100 µM | TGI (HCT-15 colon): > 100 µM | TGI (HL-60(TB) leukemia): > 100 µM | TGI (HOP-18 NSCLC): > 100 µM | TGI (HOP-62 NSCLC): > 100 µM | TGI (HOP-92 NSCLC): > 100 µM | TGI (HT29 colon): > 100 µM | TGI (IGROV1 ovarian): > 100 µM | TGI (K-562 leukemia): > 100 µM | TGI (KM12 colon): > 100 µM | TGI (KM20L2 colon): > 100 µM | TGI (LOX IMVI melanoma): > 100 µM | TGI (LXFL 529 NSCLC): > 100 µM | TGI (M14 melanoma): > 100 µM | TGI (M19-MEL melanoma): > 100 µM | TGI (MALME-3M melanoma): > 100 µM | TGI (MOLT-4 leukemia): > 100 µM | TGI (NCI-H226 lung): > 100 µM | TGI (NCI-H23 lung): > 100 µM | TGI (NCI-H460 lung): > 100 µM | TGI (NCI-H522 lung): > 100 µM | TGI (OVCAR-3 ovarian): > 100 µM | TGI (OVCAR-4 ovarian): > 100 µM | TGI (OVCAR-5 ovarian): > 100 µM | TGI (OVCAR-8 ovarian): > 100 µM | TGI (RPMI-8226 leukemia): > 100 µM | TGI (RXF 393 renal): > 100 µM | TGI (SF-268 CNS): > 100 µM | TGI (SF-295 CNS): > 100 µM | TGI (SF-539 CNS): > 100 µM | TGI (SK-MEL-2 melanoma): > 100 µM | TGI (SK-MEL-28 melanoma): > 100 µM | TGI (SK-MEL-5 melanoma): > 100 µM | TGI (SK-OV-3 ovarian): > 100 µM | TGI (SN12C renal): > 100 µM | TGI (SNB-19 CNS): > 100 µM | TGI (SNB-75 CNS): > 100 µM | TGI (SNB-78 CNS): > 100 µM | TGI (SR leukemia): > 100 µM | TGI (SW-620 colon): > 100 µM | TGI (TK-10 renal): > 100 µM | TGI (U251 CNS): > 100 µM | TGI (UACC-257 melanoma): > 100 µM | TGI (UACC-62 melanoma): > 100 µM | TGI (UO-31 renal): > 100 µM | TGI (XF 498 CNS): > 100 µM
